Laboratory results as given in ChEMBL document CHEMBL1201862, “PubChem BioAssay data set” (2004).
Activity calls are given as the source filed them.

What was measured:
HEK293 [1] = test: membrane integrity loss in HEK cells – cell-based, fluorescence, cytotoxicity control for IDE activator project, dose response (AID 588440); type: functional; conditions: Homo sapiens;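 further: cytotoxicity by LDH release measuring loss of membrane integrity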
[2] = biological target: Ras and Rab interactor 1/Tyrosine-protein kinase ABL1 (Homo sapiens, UniProt P00519+Q13671); type: functional;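 further: biochemical TR-FRET dose-response test measuring inhibition of binding between Rin1 and Abl proteins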
Ras and Rab interactor 1/Tyrosine-protein kinase ABL1, sequence (P00519 whole entry): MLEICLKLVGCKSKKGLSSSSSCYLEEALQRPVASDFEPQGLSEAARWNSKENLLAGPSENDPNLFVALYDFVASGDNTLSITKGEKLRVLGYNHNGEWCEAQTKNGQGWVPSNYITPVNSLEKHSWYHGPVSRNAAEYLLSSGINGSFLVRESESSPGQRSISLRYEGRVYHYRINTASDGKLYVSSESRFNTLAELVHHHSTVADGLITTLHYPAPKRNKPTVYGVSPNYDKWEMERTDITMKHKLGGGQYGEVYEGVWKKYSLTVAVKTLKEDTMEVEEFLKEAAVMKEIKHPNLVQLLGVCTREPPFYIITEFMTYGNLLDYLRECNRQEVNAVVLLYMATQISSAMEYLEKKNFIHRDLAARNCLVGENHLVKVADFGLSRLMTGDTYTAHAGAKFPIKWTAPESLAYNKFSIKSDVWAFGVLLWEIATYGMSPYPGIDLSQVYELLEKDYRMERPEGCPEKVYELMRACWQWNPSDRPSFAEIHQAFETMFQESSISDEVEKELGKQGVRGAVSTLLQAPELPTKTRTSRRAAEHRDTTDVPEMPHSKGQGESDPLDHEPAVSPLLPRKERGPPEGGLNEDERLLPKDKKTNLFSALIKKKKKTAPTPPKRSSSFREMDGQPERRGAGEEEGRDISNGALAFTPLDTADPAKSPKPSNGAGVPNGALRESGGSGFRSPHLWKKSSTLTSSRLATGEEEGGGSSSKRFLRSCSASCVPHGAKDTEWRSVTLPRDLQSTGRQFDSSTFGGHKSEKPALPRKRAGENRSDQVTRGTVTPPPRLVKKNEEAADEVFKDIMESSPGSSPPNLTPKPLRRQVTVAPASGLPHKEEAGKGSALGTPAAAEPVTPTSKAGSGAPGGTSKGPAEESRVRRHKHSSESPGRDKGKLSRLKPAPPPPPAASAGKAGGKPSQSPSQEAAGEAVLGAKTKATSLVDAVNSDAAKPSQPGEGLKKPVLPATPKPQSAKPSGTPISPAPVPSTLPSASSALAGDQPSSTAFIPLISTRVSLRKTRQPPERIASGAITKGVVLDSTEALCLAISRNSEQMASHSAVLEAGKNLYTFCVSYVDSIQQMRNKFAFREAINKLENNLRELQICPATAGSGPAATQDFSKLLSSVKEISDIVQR
Ras and Rab interactor 1/Tyrosine-protein kinase ABL1, sequence (Q13671 whole entry): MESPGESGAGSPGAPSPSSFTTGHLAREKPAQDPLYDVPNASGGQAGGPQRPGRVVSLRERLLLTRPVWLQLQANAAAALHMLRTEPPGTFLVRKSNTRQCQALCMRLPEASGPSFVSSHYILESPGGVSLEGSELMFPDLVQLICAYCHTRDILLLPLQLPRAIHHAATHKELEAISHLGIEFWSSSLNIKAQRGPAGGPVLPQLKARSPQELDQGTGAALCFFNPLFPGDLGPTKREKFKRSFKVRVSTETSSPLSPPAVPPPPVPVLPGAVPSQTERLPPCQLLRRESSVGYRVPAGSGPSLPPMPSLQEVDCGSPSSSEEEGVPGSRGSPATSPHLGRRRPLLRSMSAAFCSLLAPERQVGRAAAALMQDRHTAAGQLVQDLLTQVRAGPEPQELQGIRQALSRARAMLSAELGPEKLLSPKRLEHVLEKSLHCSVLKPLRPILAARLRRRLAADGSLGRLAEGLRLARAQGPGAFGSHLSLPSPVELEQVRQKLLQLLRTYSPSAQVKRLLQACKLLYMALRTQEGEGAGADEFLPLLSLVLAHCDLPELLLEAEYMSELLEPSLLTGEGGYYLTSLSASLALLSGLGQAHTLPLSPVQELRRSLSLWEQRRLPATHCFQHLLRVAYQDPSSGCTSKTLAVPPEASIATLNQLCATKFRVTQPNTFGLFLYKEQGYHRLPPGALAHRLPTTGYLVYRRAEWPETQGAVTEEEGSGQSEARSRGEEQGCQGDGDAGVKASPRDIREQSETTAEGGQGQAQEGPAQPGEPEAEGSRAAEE

Nonstructural protein 1 = Nonstructural protein 1 (Influenza A virus, UniProt Q194T2); type: functional, Influenza A virus (A/California/07/2009(H1N1))
[3] = biological target: Photoreceptor-specific nuclear receptor (Homo sapiens, UniProt Q9Y5X4); type: functional;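 further: potency for compounds that break the NR2E3 corepressor complex and count as activators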
Photoreceptor-specific nuclear receptor, sequence (Q9Y5X4 whole entry): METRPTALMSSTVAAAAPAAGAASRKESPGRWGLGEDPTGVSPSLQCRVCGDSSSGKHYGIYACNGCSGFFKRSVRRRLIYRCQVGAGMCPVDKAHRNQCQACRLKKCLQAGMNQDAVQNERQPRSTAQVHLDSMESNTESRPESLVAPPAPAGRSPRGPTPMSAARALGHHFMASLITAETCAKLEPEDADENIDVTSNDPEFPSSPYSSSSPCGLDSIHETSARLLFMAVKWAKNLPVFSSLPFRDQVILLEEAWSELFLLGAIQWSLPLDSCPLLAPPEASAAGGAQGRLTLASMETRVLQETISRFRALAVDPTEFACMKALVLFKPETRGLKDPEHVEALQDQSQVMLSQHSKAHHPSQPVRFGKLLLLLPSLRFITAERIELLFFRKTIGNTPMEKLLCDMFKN

HEK293 [4] = test: optical interference in Abeta FP readout, dose response, artefact control for IDE activator project, biochemical, fluorescence polarization (AID 588442); type: functional, cell-based; conditions: Homo sapiens
Insulin-degrading enzyme [5] = biological target: T1, Insulin-degrading enzyme (Homo sapiens, UniProt P14735); test: recombinant IDE activation, cell-free – biochemical, fluorescence polarization, counter-screen for IDE activator project, dose response (AID 588681)
T1 sequence (P14735 whole entry): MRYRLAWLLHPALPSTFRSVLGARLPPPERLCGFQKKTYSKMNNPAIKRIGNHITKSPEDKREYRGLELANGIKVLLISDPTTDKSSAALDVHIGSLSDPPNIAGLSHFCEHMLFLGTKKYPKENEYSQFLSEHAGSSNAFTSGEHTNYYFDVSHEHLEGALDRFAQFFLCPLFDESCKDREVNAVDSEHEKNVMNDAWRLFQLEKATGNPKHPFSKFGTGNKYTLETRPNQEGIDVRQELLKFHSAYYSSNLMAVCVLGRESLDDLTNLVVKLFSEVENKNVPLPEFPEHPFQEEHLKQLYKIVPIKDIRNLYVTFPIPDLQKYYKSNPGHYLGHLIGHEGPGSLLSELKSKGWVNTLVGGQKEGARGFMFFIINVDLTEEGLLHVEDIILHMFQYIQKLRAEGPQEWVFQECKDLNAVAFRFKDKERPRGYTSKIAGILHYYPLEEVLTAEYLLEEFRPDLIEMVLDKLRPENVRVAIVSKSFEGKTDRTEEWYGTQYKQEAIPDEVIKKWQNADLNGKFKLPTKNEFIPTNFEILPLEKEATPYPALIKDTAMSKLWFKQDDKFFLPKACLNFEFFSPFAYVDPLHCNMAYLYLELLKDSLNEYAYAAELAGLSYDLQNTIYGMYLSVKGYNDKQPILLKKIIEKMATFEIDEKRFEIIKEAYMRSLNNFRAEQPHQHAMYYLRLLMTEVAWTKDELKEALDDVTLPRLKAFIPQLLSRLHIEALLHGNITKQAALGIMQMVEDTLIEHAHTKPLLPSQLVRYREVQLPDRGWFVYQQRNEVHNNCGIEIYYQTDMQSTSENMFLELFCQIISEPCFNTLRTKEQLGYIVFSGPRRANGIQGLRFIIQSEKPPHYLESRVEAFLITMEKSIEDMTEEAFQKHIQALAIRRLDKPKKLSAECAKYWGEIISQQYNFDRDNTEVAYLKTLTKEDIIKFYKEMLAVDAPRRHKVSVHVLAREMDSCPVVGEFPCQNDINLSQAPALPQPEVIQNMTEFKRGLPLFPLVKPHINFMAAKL

Insulin-degrading enzyme [6] = biological target: T1, Insulin-degrading enzyme; test: cellular IDE activation of Abeta substrate cleavage – fluorescence polarization, HEK cells, dose response (AID 588439); type: functional, cell-based
[7] = biological target: Peroxisome proliferator-activated receptor gamma/Nuclear receptor corepressor 2 (Homo sapiens, UniProt P37231+Q9Y618); type: functional
[8] = biological target: Mothers against decapentaplegic homolog 3 (Homo sapiens, UniProt P84022); test: blockers of Smad3 complex formation in lysate – cell lysate, secondary confirmation, chemiluminescent ELISA, HEK293 lysate, dose response (AID 1058); type: functional
Mothers against decapentaplegic homolog 3, sequence (P84022 whole entry): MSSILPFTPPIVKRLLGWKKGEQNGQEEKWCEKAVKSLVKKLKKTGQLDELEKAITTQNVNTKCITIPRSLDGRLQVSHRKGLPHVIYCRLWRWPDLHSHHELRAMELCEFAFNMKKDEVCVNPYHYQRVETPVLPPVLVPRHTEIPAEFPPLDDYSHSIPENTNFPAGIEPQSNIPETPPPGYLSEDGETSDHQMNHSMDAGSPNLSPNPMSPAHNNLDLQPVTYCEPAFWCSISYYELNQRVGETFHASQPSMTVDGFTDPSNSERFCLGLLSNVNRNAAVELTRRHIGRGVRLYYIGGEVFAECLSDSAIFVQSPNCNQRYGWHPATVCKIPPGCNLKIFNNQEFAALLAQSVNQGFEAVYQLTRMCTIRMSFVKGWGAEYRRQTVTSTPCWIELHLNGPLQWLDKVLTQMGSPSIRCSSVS

[9] = biological target: Serine/threonine-protein phosphatase PP1-alpha catalytic subunit (Homo sapiens, UniProt P62136); test: inhibition of protein phosphatase 1 activity – biochemical, fluorescence, dose response (AID 2403);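 further: phosphatase turnover of OMFP into fluorescent 3-O-methylfluorescein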
Serine/threonine-protein phosphatase PP1-alpha catalytic subunit, sequence (P62136 whole entry): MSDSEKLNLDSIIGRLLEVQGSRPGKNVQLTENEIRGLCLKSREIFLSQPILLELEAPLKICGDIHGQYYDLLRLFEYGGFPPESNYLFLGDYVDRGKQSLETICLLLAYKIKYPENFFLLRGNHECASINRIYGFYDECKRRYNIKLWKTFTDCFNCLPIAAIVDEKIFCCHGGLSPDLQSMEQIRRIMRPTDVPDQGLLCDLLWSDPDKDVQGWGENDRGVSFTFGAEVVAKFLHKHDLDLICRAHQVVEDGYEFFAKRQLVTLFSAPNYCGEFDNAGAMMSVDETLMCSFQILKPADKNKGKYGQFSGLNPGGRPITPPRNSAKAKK

[10] = biological target: Serine/threonine-protein phosphatase (Homo sapiens, UniProt Q9BPW0); test: Counterscreen for inhibitors of PP1: fluorescence-based biochemical high throughput dose response assay to identify inhibitors of Protein Phosphatase 5 (PP5). [Related pubchem assays: 2034 (Summary (PP5 inhibitors)), 1987 (PP5 inhibitors in singlate), 2235 (PP1 inhibitors in singlate)]
Streptococcus = test: GAS UMAA2166 growth inhibition – luminescence, BacTiterGlo, counter-screen for streptokinase expression inhibitor project, dose response (AID 1915); type: functional, organism-based;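 further: potency for reduction of bacterial viability or growth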
[11] = system: Streptococcus sp. 'group A'; test: Streptococcus pyogenes SK(-)GAS viability under kanamycin – luminescence, BacTiterGlo, confirmation, counter-screen for streptokinase expression inhibitor project, dose response (AID 1900); type: functional, organism-based
INS1 = test: INS-1E survival protection against cytokine death – cell-based, luminescence, retest, dose response (AID 449756); type: functional; conditions: Rattus norvegicus;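 further: cell death triggered by IL-1 beta plus TNF-alpha plus IFN-gamma mixture; protective hits raise ATP signal compared with cytokine alone wells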
[12] = decrease of insulin promoter-GFP reporter – imaging, high-content screening, mouse beta cells (AID 1628); type: functional; conditions: MIN6
[13] = MIN6 cell viability loss – mouse insulinoma, cytotoxicity control, dose response (AID 2122); type: functional;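 further: confirmatory high-throughput counterscreen run to flag cytotoxic compounds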
[14] = IC50 of Artemis nuclease activity blockers – biochemical, fluorescence intensity, dose response (AID 720701); type: functional;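 further: Artemis endonuclease enzyme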
[15] = biological target: T2, Probable nicotinate-nucleotide adenylyltransferase (Staphylococcus aureus (strain N315), UniProt P65502); type: functional, Staphylococcus aureus subsp. aureus N315; conditions: read-out: IC50_Mean;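 on IC50 Mean: confirmatory dose-response retesting of NadD inhibitor hits first found in an ultra-high-throughput screen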
T2 sequence (P65502 whole entry): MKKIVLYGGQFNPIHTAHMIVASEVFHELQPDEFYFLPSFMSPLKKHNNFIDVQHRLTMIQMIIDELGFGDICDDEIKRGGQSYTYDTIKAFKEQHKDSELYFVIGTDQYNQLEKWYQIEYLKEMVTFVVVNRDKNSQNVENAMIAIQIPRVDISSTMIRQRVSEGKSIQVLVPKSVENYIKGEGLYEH

Cysteine protease ATG4B = biological target: T3, Cysteine protease ATG4B (Homo sapiens, UniProt Q9Y4P1); type: functional;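 further: Fluorescence-based dose-response confirmation assay measuring inhibition of ATG4B activity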
T3 sequence (Q9Y4P1 whole entry): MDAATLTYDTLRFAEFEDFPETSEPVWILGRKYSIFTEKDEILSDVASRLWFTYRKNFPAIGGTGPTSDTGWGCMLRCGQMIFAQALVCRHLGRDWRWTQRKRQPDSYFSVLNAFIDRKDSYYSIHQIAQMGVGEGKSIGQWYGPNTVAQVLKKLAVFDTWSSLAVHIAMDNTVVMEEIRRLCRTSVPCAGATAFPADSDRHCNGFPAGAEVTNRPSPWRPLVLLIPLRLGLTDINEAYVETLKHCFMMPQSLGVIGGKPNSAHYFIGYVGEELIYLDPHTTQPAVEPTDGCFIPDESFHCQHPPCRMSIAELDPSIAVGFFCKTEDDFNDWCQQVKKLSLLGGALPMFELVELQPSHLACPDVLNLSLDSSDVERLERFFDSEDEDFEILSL

[16] = biological target: T2, Probable nicotinate-nucleotide adenylyltransferase; type: functional, Staphylococcus aureus subsp. aureus N315
[17] = antiviral protection against BTV-induced cell death – arbovirus, BSR cells, confirmation (AID 1250); type: functional;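 further: protection from viral cytopathic effect measured as cell viability by ATP luminescence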
Phospholipase A2 = Phospholipase A2 (Homo sapiens, UniProt P04054); type: functional;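 further: confirmatory dose-response counterscreen on phospholipase A2, testing hits that came from an ultra-high-throughput screen for ATG4B inhibitors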
Phospholipase A2, sequence (P04054 whole entry): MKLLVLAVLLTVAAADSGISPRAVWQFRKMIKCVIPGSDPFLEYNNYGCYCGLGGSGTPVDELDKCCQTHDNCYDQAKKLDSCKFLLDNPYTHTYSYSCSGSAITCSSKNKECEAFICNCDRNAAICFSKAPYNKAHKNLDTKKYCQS

Cytochrome P450 2D6 = Cytochrome P450 2D6 (Homo sapiens, UniProt P10635); test: qHTS Assay for Inhibitors and Substrates of Cytochrome P450 2D6. [Related pubchem assays: 410 ]; type: ADME; conditions: read-out: Potency
Cytochrome P450 2D6, sequence (P10635 whole entry): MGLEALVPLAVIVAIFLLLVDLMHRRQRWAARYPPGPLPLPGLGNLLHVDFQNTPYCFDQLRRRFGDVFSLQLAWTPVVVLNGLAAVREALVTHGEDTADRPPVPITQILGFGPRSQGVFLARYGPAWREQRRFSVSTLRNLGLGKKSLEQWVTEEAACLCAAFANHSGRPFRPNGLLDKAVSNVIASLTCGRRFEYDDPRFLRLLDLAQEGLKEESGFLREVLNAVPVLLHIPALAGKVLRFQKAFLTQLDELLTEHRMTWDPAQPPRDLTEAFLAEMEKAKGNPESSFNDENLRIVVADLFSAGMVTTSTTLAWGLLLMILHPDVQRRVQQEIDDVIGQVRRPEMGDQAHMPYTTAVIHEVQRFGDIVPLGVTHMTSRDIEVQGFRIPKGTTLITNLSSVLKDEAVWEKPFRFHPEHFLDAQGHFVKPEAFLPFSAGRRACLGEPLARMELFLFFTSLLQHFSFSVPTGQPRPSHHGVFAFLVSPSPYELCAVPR

[18] = biological target: Lytic switch protein BZLF1 (Epstein-Barr virus (strain B95-8) (HHV-4) (Human herpesvirus 4), UniProt P03206); test: inhibition of BZLF1 ZTA DNA binding – biochemical, fluorescence polarization, Epstein-Barr virus, 1536-well, counter-screen for EBNA-1 inhibitor project, dose response (AID 2377); parameters: species or system human gammaherpesvirus 4;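 further: fluorescence polarization of Cy5-labelled ZRE DNA probe bound by purified Zta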
Lytic switch protein BZLF1, sequence (P03206 whole entry): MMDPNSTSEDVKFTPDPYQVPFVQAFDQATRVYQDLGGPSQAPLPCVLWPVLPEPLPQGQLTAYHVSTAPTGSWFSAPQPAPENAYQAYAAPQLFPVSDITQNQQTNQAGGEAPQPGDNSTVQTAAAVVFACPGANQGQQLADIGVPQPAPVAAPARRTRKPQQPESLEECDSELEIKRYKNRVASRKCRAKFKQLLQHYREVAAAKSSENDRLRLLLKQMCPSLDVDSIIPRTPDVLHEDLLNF

[19] = biological target: Epstein-Barr nuclear antigen 1 (Epstein-Barr virus (strain B95-8) (HHV-4) (Human herpesvirus 4), UniProt P03211); test: inhibition of EBV nuclear antigen 1 DNA binding – biochemical, fluorescence polarization, 1536-well, dose response (AID 2381); parameters: species or system human gammaherpesvirus 4;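 further: fluorescence polarization of a Cy5 DNA probe bound by EBNA-1 protein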
Epstein-Barr nuclear antigen 1, sequence (P03211 whole entry): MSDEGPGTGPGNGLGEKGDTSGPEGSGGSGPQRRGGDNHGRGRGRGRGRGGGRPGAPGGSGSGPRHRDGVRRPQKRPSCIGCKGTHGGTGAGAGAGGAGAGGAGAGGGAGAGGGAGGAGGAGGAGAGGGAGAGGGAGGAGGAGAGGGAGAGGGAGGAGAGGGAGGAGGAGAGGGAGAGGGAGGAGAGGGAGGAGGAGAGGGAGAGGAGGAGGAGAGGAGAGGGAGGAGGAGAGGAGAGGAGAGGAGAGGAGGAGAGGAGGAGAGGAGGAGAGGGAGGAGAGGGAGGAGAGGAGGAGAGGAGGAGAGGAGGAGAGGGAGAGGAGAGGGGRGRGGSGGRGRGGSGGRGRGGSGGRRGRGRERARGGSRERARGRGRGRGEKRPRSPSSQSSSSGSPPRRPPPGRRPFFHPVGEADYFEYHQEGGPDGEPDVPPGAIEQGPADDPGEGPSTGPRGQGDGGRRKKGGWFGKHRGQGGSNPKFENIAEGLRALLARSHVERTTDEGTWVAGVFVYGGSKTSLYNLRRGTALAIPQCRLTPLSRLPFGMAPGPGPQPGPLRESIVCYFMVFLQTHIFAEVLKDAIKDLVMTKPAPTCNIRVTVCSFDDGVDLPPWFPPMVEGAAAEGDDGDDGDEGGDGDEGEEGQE

With `C[C@@H]1NC(=O)N[C@@H]1CCCCCC(=O)O` the IC50 (HEK293 [1]) was > 89.2 µM (inactive), the IC50 [2] was 0.0101 µM (active) and the IC50 (Nonstructural protein 1) was 1.57 µM (active). For the same compound, the IC50 [3] was 0.149 µM (active), the EC50 (HEK293 [4]) was 11.9 µM (inactive) and the EC50 (Insulin-degrading enzyme [5]) was 7.41 µM (active). For the same compound, the EC50 (Insulin-degrading enzyme [6]) was 7.8 µM (active) and the IC50 [7] was 1.38 µM (active).
For `Oc1cc2c(cc1C(c1ccc(F)cc1)N1CCCC1)OCO2` (stereo not given), the IC50 [8] was 23.3 µM (not active).
For `c1ccc(N2CCN(c3nc(-c4ccccn4)nc4ccccc34)CC2)cc1`, the IC50 [9] was 6.28 µM (active), the IC50 [10] was > 22.3 µM (not active) and the EC50 (Streptococcus) was 8.15 µM (active). For the same compound, the EC50 [11] was 0.433 µM (active), the AC50 (INS1) was 3.01 µM (active) and the IC50 [12] was 2.4 µM (active). The IC50 [13] was 1.67 µM (active) and the IC50 [14] was 3.59 µM (active).
In the case of `CCc1nnc(NS(=O)(=O)c2ccc(N/C=C\C(=O)c3ccc4ccccc4c3)cc2)s1`, the IC50 [15] is reported as 29.7 µM (active), the IC50 (Cysteine protease ATG4B) is reported as 11.1 µM (active) and the IC50 [16] is reported as 5.19 µM (active). For the same compound, the IC50 [17] was 62.9 µM (active) and the IC50 (Phospholipase A2) was 9.13 µM (active).
In the case of `CCN1C(C)=C(C(=O)OC)C(c2ccccc2)N2C(=O)[C@](O)(C(=O)OC)C(c3ccccc3)C(C(=O)c3ccccc3)=C12` (stereo not given in full), the AC50 (Cytochrome P450 2D6) is reported as 3.16 µM (inconclusive).
With `CCOc1ccc(C(=O)NC(=S)Nc2ccc(NC(=O)C(C)C)cc2)cc1[N+](=O)[O-]` the IC50 [18] was > 111 µM (not active) and the IC50 [19] was 1.89 µM (active).
